Results as given in ChEMBL document CHEMBL1782053, “Differences in CYP3A4 catalyzed bioactivation of 5-aminooxindole and 5-aminobenzsultam scaffolds in proline-rich tyrosine kinase 2 (PYK2) inhibitors: retrospective analysis by CYP3A4 molecular docking, quantum chemical calculations and glutathione adduct detection using linear ion trap/orbitrap …” (Bioorg Med Chem Lett, 2009).

Assays:
[1] = Dissociation constant, pKa of the compound; type: physicochemical
[2] = test system: Liver microsomes; assay: Metabolic stability in human liver microsome assessed as level of GSH adduct at 1 to 10 uM by ion trap/orbitrap MS analysis; type: ADME
[3] = test system: Liver microsomes; assay: Metabolic stability in human liver microsome assessed as level of GSH adduct at 20 uM by ion trap/orbitrap MS analysis; type: ADME

| pKa [1] | Stability [2] | Stability [3] | SMILES |
| --- | --- | --- | --- |
| 13.7 |  |  | CN(C)[C@@H]1CCC[C@H]1Nc1nc(Nc2ccc3c(c2)CC(=O)N3)ncc1C(F)(F)F |
| 9.26 | Stable | Unstable | CN(C)[C@@H]1CCC[C@H]1Nc1nc(Nc2ccc3c(c2)CS(=O)(=O)N3)ncc1C(F)(F)F |
